# Laboratory results published in US20230053540A1, “TREATMENT OF LIVER INJURY” (Massachusetts Institute of Technology, priority 2019, published 2023).
# Tested on: hepatocytes
# Test: Seq-Well scRNA-Seq of hepatocytes after APAP overdose (signature scores, DEG vs untreated)
# Type: in vivo, mouse
compound,measurement,setting,value
"CC(=O)Nc1ccc(O)cc1 [APAP, acetaminophen]",Rpl34 logFC,"APAP vs UT, A24logFC",−0.2976
same,Rps24 logFC,"APAP vs UT, A24logFC",−0.2625
same,Rraga logFC,"APAP vs UT, A24logFC",0.2626
same,Rsl1d1 logFC,"APAP vs UT, A24logFC",0.3461
same,Selo logFC,"APAP vs UT, A24logFC",−0.2574
same,Sema4g logFC,"APAP vs UT, A24logFC",−0.2505
same,Serbp1 logFC,"APAP vs UT, A24logFC",0.3227
same,Sf3b1 logFC,"APAP vs UT, A24logFC",0.2888
same,Sigmar1 logFC,"APAP vs UT, A24logFC",−0.3055
same,Slc16a2 logFC,"APAP vs UT, A24logFC",−0.252
same,Slc16a10 logFC,"APAP vs UT, A24logFC",−0.2548
same,Slc25a51 logFC,"APAP vs UT, A24logFC",0.264
same,Slc26a1 logFC,"APAP vs UT, A24logFC",−0.2817
same,Slc30a1 logFC,"APAP vs UT, A24logFC",0.2506
same,Slc35d1 logFC,"APAP vs UT, A24logFC",0.3094
same,Smoc1 logFC,"APAP vs UT, A24logFC",0.2616
same,Spag9 logFC,"APAP vs UT, A24logFC",0.3188
same,Spcs1 logFC,"APAP vs UT, A24logFC",−0.2629
same,Sptan1 logFC,"APAP vs UT, A24logFC",0.3127
same,Srd5a1 logFC,"APAP vs UT, A24logFC",−0.2773
same,Srrm2 logFC,"APAP vs UT, A24logFC",0.3282
same,St3gal4 logFC,"APAP vs UT, A24logFC",0.275
same,Swi5 logFC,"APAP vs UT, A24logFC",−0.2621
same,Tab2 logFC,"APAP vs UT, A24logFC",0.3484
same,Tbca logFC,"APAP vs UT, A24logFC",−0.2726
same,Tln1 logFC,"APAP vs UT, A24logFC",0.321
same,Tmem86b logFC,"APAP vs UT, A24logFC",−0.2582
same,Tmem150a logFC,"APAP vs UT, A24logFC",−0.2535
same,Tmem242 logFC,"APAP vs UT, A24logFC",−0.2725
same,Tpi1 logFC,"APAP vs UT, A24logFC",−0.2616
same,Trip11 logFC,"APAP vs UT, A24logFC",0.3479
same,Ubr5 logFC,"APAP vs UT, A24logFC",0.3057
same,Ugt3a2 logFC,"APAP vs UT, A24logFC",−0.2586
same,Usp7 logFC,"APAP vs UT, A24logFC",0.2873
same,Usp34 logFC,"APAP vs UT, A24logFC",0.2859
same,Xrn2 logFC,"APAP vs UT, A24logFC",0.2985
same,Ythdc1 logFC,"APAP vs UT, A24logFC",0.2641
same,Zfand5 logFC,"APAP vs UT, A24logFC",0.2882
same,Zfp106 logFC,"APAP vs UT, A24logFC",0.3369
same,Zfp259 logFC,"APAP vs UT, A24logFC",0.2556
same,2810007J24Rik avg_logFC,APAP vs. UT,−0.2871
same,2810007J24Rik pct.1,APAP vs. UT,0.909
same,Aadac avg_logFC,APAP vs. UT,−0.3243
same,Aadac pct.1,APAP vs. UT,0.849
same,Abca6 avg_logFC,APAP vs. UT,0.2637
same,Abca6 pct.1,APAP vs. UT,0.679
same,Abcb4 avg_logFC,APAP vs. UT,0.2759
same,Abcb4 pct.1,APAP vs. UT,0.78
same,Acaa1b avg_logFC,APAP vs. UT,−0.3158
same,Acaa1b pct.1,APAP vs. UT,0.883
same,Adh1 avg_logFC,APAP vs. UT,−0.3122
same,Adh1 pct.1,APAP vs. UT,0.941
same,Agpat6 avg_logFC,APAP vs. UT,0.2706
same,Agpat6 pct.1,APAP vs. UT,0.695
same,Agt avg_logFC,APAP vs. UT,0.3007
same,Agt pct.1,APAP vs. UT,0.859
same,Akr1c6 avg_logFC,APAP vs. UT,−0.5047
same,Akr1c6 pct.1,APAP vs. UT,0.92
same,Aldh9a1 avg_logFC,APAP vs. UT,0.2715
same,Aldh9a1 pct.1,APAP vs. UT,0.836
same,Aldob avg_logFC,APAP vs. UT,0.2576
same,Aldob pct.1,APAP vs. UT,0.997
same,Angptl3 avg_logFC,APAP vs. UT,0.414
same,Angptl3 pct.1,APAP vs. UT,0.961
same,Apoa4 avg_logFC,APAP vs. UT,0.5984
same,Apoa4 pct.1,APAP vs. UT,0.574
same,Apob avg_logFC,APAP vs. UT,0.2678
same,Apob pct.1,APAP vs. UT,0.989
same,Apoc2 avg_logFC,APAP vs. UT,0.5107
same,Apoc2 pct.1,APAP vs. UT,0.851
same,Arhgap5 avg_logFC,APAP vs. UT,0.2875
same,Arhgap5 pct.1,APAP vs. UT,0.647
same,Arhgef12 avg_logFC,APAP vs. UT,0.2783
same,Arhgef12 pct.1,APAP vs. UT,0.597
same,Asl avg_logFC,APAP vs. UT,0.3374
same,Asl pct.1,APAP vs. UT,0.859
same,Atp1a1 avg_logFC,APAP vs. UT,0.2871
same,Atp1a1 pct.1,APAP vs. UT,0.623
same,Atp2a2 avg_logFC,APAP vs. UT,0.3031
same,Atp2a2 pct.1,APAP vs. UT,0.666
same,Bach1 avg_logFC,APAP vs. UT,0.2613
same,Bach1 pct.1,APAP vs. UT,0.356
same,Bche avg_logFC,APAP vs. UT,0.2566
same,Bche pct.1,APAP vs. UT,0.562
same,Brd2 avg_logFC,APAP vs. UT,0.2856
same,Brd2 pct.1,APAP vs. UT,0.59
same,Btg2 avg_logFC,APAP vs. UT,0.2635
same,Btg2 pct.1,APAP vs. UT,0.401
same,C8g avg_logFC,APAP vs. UT,−0.2582
same,C8g pct.1,APAP vs. UT,0.859
same,Car3 avg_logFC,APAP vs. UT,−0.3762
same,Car3 pct.1,APAP vs. UT,0.956
same,Cdo1 avg_logFC,APAP vs. UT,0.2665
same,Cdo1 pct.1,APAP vs. UT,0.964
same,Ces3a avg_logFC,APAP vs. UT,−0.3174
same,Ces3a pct.1,APAP vs. UT,0.93
same,Ces3b avg_logFC,APAP vs. UT,−0.284
same,Ces3b pct.1,APAP vs. UT,0.727
same,Chchd2 avg_logFC,APAP vs. UT,−0.2575
same,Chchd2 pct.1,APAP vs. UT,0.874
same,Chchd10 avg_logFC,APAP vs. UT,0.3833
same,Chchd10 pct.1,APAP vs. UT,0.925
same,Chka avg_logFC,APAP vs. UT,0.2892
same,Chka pct.1,APAP vs. UT,0.312
same,Cite avg_logFC,APAP vs. UT,0.3077
same,Cite pct.1,APAP vs. UT,0.602
same,Cml1 avg_logFC,APAP vs. UT,−0.2953
same,Cml1 pct.1,APAP vs. UT,0.709
same,Cox4i1 avg_logFC,APAP vs. UT,−0.2627
same,Cox4i1 pct.1,APAP vs. UT,0.941
same,Cox6c avg_logFC,APAP vs. UT,−0.3432
same,Cox6c pct.1,APAP vs. UT,0.808
same,Cox7a2 avg_logFC,APAP vs. UT,−0.2511
same,Cox7a2 pct.1,APAP vs. UT,0.722
same,Cp avg_logFC,APAP vs. UT,0.3758
same,Cp pct.1,APAP vs. UT,0.965
same,Cpt1a avg_logFC,APAP vs. UT,0.285
same,Cpt1a pct.1,APAP vs. UT,0.775
same,Creld2 avg_logFC,APAP vs. UT,0.2626
same,Creld2 pct.1,APAP vs. UT,0.487
same,Csde1 avg_logFC,APAP vs. UT,0.2739
same,Csde1 pct.1,APAP vs. UT,0.749
same,Cyb5 avg_logFC,APAP vs. UT,−0.2845
same,Cyb5 pct.1,APAP vs. UT,0.972
same,Cyp4a10 avg_logFC,APAP vs. UT,0.7159
same,Cyp4a10 pct.1,APAP vs. UT,0.727
same,Cyp4a14 avg_logFC,APAP vs. UT,1.281
same,Cyp4a14 pct.1,APAP vs. UT,0.714
same,D17Wsu92e avg_logFC,APAP vs. UT,0.2809
same,D17Wsu92e pct.1,APAP vs. UT,0.736
same,Ddx3x avg_logFC,APAP vs. UT,0.2753
same,Ddx3x pct.1,APAP vs. UT,0.689
same,Ddx21 avg_logFC,APAP vs. UT,0.2576
same,Dennd5b avg_logFC,APAP vs. UT,0.2562
same,Dennd5b pct.1,APAP vs. UT,0.55
same,Dhcr24 avg_logFC,APAP vs. UT,0.3629
same,Dhcr24 pct.1,APAP vs. UT,0.883
same,Eif1a avg_logFC,APAP vs. UT,0.2667
same,Eif1a pct.1,APAP vs. UT,0.492
same,Eif4g2 avg_logFC,APAP vs. UT,0.3407
same,Eif4g2 pct.1,APAP vs. UT,0.824
same,Ell2 avg_logFC,APAP vs. UT,0.2572
same,Ell2 pct.1,APAP vs. UT,0.609
same,Elovl3 avg_logFC,APAP vs. UT,−0.5221
same,Elovl3 pct.1,APAP vs. UT,0.65
same,Epb4.1 avg_logFC,APAP vs. UT,0.2567
same,Epb4.1 pct.1,APAP vs. UT,0.527
same,Etf1 pct.1,APAP vs. UT,0.61
same,Etnppl avg_logFC,APAP vs. UT,0.2637
same,Etnppl pct.1,APAP vs. UT,0.647
same,Fabp1 avg_logFC,APAP vs. UT,−0.3078
same,Fabp1 pct.1,APAP vs. UT,0.992
same,Fam134b avg_logFC,APAP vs. UT,0.2987
same,Fam134b pct.1,APAP vs. UT,0.589
same,Fga avg_logFC,APAP vs. UT,0.4335
same,Fga pct.1,APAP vs. UT,0.996
same,Fgb avg_logFC,APAP vs. UT,0.3905
same,Fgb pct.1,APAP vs. UT,0.999
same,Fgg avg_logFC,APAP vs. UT,0.3391
same,Fgg pct.1,APAP vs. UT,0.997
same,Fgl1 avg_logFC,APAP vs. UT,0.3611
same,Fgl1 pct.1,APAP vs. UT,0.861
same,Fos avg_logFC,APAP vs. UT,0.2633
same,Fos pct.1,APAP vs. UT,0.609
same,Gadd45g avg_logFC,APAP vs. UT,−0.3405
same,Gadd45g pct.1,APAP vs. UT,0.503
same,Gclc avg_logFC,APAP vs. UT,0.671
same,Gclc pct.1,APAP vs. UT,0.839
same,Gfra1 avg_logFC,APAP vs. UT,0.2536
same,Gfra1 pct.1,APAP vs. UT,0.676
same,Gjb2 avg_logFC,APAP vs. UT,0.2803
same,Gjb2 pct.1,APAP vs. UT,0.725
same,Gm2a avg_logFC,APAP vs. UT,0.2814
same,Gm2a pct.1,APAP vs. UT,0.599
same,Gm13775 avg_logFC,APAP vs. UT,−1.061
same,Gm13775 pct.1,APAP vs. UT,0.306
same,Gm15564 avg_logFC,APAP vs. UT,1.171
same,Gm15564 pct.1,APAP vs. UT,0.981
same,Gm23935 avg_logFC,APAP vs. UT,0.5701
same,Gm23935 pct.1,APAP vs. UT,0.954
same,Gm24601 avg_logFC,APAP vs. UT,0.4962
same,Gm24601 pct.1,APAP vs. UT,0.198
same,Gm26917 avg_logFC,APAP vs. UT,0.395
same,Gm26917 pct.1,APAP vs. UT,0.253
same,Gm26924 avg_logFC,APAP vs. UT,0.8508
same,Gm26924 pct.1,APAP vs. UT,1
same,Grip2 avg_logFC,APAP vs. UT,0.3797
same,Grip2 pct.1,APAP vs. UT,0.158
same,Grn avg_logFC,APAP vs. UT,0.3692
same,Grn pct.1,APAP vs. UT,0.62
same,Gstm3 avg_logFC,APAP vs. UT,−0.4736
same,Gstm3 pct.1,APAP vs. UT,0.269
same,Gyk avg_logFC,APAP vs. UT,0.3144
same,Gyk pct.1,APAP vs. UT,0.583
same,Hbb-bs avg_logFC,APAP vs. UT,1.332
same,Hbb-bs pct.1,APAP vs. UT,0.125
same,Hbb-bt avg_logFC,APAP vs. UT,0.4482
same,Hbb-bt pct.1,APAP vs. UT,0.052
same,Hdlbp avg_logFC,APAP vs. UT,0.274
same,Hdlbp pct.1,APAP vs. UT,0.828
same,Herpud1 avg_logFC,APAP vs. UT,0.2973
same,Herpud1 pct.1,APAP vs. UT,0.842
